{"source": "paper PMC5816668", "about": "“Insights into the inhibitory mechanisms of NADH on the αγ heterodimer of human NAD-dependent isocitrate dehydrogenase” (Scientific Reports, 2018)", "key": {"[1]": {"target": "T1, αγ heterodimer of human NAD-IDH (Homo sapiens, UniProt P50213+P51553)", "T1 construct": "gene IDH3A; E. coli BL21(DE3) Codon-Plus co-expression from pQlinkN-α-γ-tev-His6; C-terminal His6 of gamma cut with TEV protease; alpha 37 kDa, gamma 39 kDa; heterodimer", "T1 sequence (P50213 28-366)": "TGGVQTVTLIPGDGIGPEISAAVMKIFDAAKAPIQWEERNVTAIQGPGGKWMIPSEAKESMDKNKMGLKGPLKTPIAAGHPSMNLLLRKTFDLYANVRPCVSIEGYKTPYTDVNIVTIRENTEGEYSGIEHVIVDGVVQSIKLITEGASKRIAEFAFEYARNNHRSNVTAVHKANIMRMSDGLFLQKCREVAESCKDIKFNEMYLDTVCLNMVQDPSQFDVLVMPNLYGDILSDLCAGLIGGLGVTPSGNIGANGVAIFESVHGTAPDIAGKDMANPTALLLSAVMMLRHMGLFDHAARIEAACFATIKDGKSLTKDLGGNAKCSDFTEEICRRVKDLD", "T1 sequence (P51553 40-393)": "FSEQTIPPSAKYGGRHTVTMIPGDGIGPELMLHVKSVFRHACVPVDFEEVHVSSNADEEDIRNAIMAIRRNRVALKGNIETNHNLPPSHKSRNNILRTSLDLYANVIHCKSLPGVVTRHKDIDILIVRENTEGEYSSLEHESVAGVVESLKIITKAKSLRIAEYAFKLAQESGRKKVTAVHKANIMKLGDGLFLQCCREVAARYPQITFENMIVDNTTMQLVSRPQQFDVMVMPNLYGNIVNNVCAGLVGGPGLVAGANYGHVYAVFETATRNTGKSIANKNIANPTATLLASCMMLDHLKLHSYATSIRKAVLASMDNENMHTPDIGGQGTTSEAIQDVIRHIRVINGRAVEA", "assay": "ITC", "type": "binding", "details": "read-out: K d (μ M) ^a", "source_text": "ITC on αγ heterodimer of human NAD-IDH"}, "[2]": {"target": "T2, αβ heterodimer of human NAD-IDH (Homo sapiens, UniProt P50213)", "T2 construct": "gene IDH3A; alpha 37 kDa, beta 39 kDa; heterodimer", "T2 sequence (O43837 35-385 partner, one chain of several)": "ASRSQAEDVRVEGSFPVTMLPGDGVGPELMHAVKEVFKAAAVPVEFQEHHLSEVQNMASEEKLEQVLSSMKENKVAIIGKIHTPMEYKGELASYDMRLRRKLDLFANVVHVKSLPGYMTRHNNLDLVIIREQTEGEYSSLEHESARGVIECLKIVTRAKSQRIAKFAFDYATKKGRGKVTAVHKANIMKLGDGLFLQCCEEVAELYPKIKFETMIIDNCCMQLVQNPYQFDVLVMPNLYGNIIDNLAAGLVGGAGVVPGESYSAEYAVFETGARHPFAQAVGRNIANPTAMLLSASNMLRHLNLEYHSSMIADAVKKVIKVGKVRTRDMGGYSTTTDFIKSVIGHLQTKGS", "assay": "ITC", "type": "binding", "details": "50 mM HEPES pH 7.4, 200 mM NaCl, 20 °C, read-out: K d (μ M) ^a", "source_text": "ITC on αβ heterodimer of human NAD-IDH"}, "[3]": {"target": "T1, αγ heterodimer of human NAD-IDH", "assay": "NADH formation at […] nm", "type": "biochemical"}, "[4]": {"target": "T3, α2βγ heterotetramer of human NAD-IDH (Homo sapiens, UniProt P50213+P51553)", "T3 construct": "gene IDH3A; alpha 37 kDa, beta 39 kDa, gamma 39 kDa", "T3 sequence (O43837 35-385 partner, one chain of several)": "as above", "assay": "NADH formation at […] nm", "type": "biochemical", "details": "33 mM Tris-acetate pH 7.4, 2 mM MnCl2, 20 mM DL-isocitrate, 1 mM NAD+, 25 °C"}, "[5]": {"target": "T3, α2βγ heterotetramer of human NAD-IDH", "assay": "ITC", "type": "binding", "details": "50 mM HEPES pH 7.4, 200 mM NaCl, 20 °C; single set of sites fit, n 2.53; read-out: K d (μ M) ^a", "source_text": "ITC on α2βγ heterotetramer of human NAD-IDH"}, "[6]": {"target": "T2, αβ heterodimer of human NAD-IDH", "assay": "NADH formation at […] nm", "type": "biochemical", "details": "33 mM Tris-acetate pH 7.4, 20 mM DL-isocitrate, 1 mM NAD+, 25 °C"}}, "note": "Where two headings read alike, the source gives them in different places.", "data": [{"smiles": "NC(=O)C1=CN([C@@H]2O[C@H](COP(=O)(O)OP(=O)(O)OC[C@H]3O[C@@H](n4cnc5c(N)ncnc54)[C@H](O)[C@@H]3O)[C@@H](O)[C@H]2O)C=CC1", "note": "[NADH]", "values": [{"measurement": "Kd", "setting": "[1]", "value": "109 ± 19.5", "unit": "µM"}, {"measurement": "Kd", "setting": "[2]; single set of sites fit, n 1.26", "value": "4.6 ± 0.7", "unit": "µM"}, {"measurement": "IC50", "setting": "[3]", "value": "82.7 ± 6", "unit": "µM"}, {"measurement": "IC50", "setting": "[4]", "value": "78.5 ± 5.4", "unit": "µM"}, {"measurement": "Kd", "setting": "[5]", "value": "46.3 ± 6.5", "unit": "µM"}, {"measurement": "IC50", "setting": "[6]", "value": "94.9 ± 7.8", "unit": "µM"}]}, {"smiles": "NC(=O)c1ccc[n+]([C@@H]2O[C@H](COP(=O)(O)OP(=O)(O)OC[C@H]3O[C@@H](n4cnc5c(N)ncnc54)[C@H](O)[C@@H]3O)[C@@H](O)[C@H]2O)c1", "note": "[NAD^+]", "values": [{"measurement": "Kd", "setting": "[2]; no isocitrate, n 1.14", "value": "268 ± 28.4", "unit": "µM"}]}]}
